Data published in patent EP0329198B1, “Base modified oligo- and polynucleotides and methods of preparing and using same” (priority 1981, dated 1982).
Read-outs that look alike come from different tables or passages of the source.

Tests used:
[1] = test system: CHO cells, permeabilized by treatment with lysolecithin; assay: Polymerase substrate function in permeabilized cells
[2] = molecular target: Streptavidin-Sepharose (Streptomyces avidinii, UniProt P22629)
Text: Its preparation and purification is described in Hoffman, et al., Proc. Natl. Acad. Sci., 77, 4666 (1980).

[3] = molecular target: streptavidin (Streptomyces avidinii, UniProt P22629); conditions: affinity of streptavidin for biotin; cited from earlier work
streptavidin, sequence (P22629 25-183): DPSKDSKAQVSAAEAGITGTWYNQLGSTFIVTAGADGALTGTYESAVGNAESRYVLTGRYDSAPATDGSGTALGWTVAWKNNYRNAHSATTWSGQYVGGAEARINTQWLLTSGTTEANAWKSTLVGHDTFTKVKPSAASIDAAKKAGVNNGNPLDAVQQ

[4] = molecular target: avidin (Gallus gallus, UniProt P02701); conditions: cited from earlier work
avidin, sequence (P02701 25-152): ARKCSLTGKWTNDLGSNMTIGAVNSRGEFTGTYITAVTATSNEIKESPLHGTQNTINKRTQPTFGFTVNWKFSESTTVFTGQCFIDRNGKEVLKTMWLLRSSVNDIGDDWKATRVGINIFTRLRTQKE

Streptavidin-Sepharose, sequence (P22629 25-183): as the sequence (P22629 25-183) above

O=C(CCCCC1SCC2NC(=O)NC21)NC/C=C/c1cn(C2CC(O)C(COP(=O)(O)OP(=O)(O)OP(=O)(O)O)O2)c(=O)[nH]c1=O (stereo not shown) [Bio-dUTP, biotinyl-dUTP]
polymerase substrate function [1]: function as a polymerase substrate

Iminobiotinyl-dUTP [^3H-IB-dUTP]
% Retained on SA-Sepharose ([2]; Load - 10 mM Tris-HCl, 8.3, 50 mM NaCl): 100%
% Retained on SA-Sepharose ([2]; eluent (1) 0.1 M NaCl): 100%
% Retained on SA-Sepharose ([2]; eluent (2) 1.0 M NaCl): 100%
% Retained on SA-Sepharose ([2]; eluent (3) 8 M Urea): 97.5%
% Retained on SA-Sepharose ([2]; eluent (4) 6 M guanidine-HCl): 97.0%
% Retained on SA-Sepharose ([2]; eluent (5) 50 mM NH4-acetate, pH 4.0): <0.01%
% Retained on SA-Sepharose ([2]; eluent (6) 50 mM NH4-acetate, pH 4.0 2 mM biotin): <0.01%

O=C(O)CCCC[C@@H]1SC[C@@H]2NC(=O)N[C@@H]21 [biotin]
Kassn [3]: 10^15

N=C1N[C@H]2[C@H](CS[C@H]2CCCCC(=O)O)N1 [iminobiotin]
binding to avidin relative to biotin [4]: less tightly than biotin
